The target in test [1] is T1, COX2 (Homo sapiens, UniProt P35354).
T1 sequence (P35354 18-604): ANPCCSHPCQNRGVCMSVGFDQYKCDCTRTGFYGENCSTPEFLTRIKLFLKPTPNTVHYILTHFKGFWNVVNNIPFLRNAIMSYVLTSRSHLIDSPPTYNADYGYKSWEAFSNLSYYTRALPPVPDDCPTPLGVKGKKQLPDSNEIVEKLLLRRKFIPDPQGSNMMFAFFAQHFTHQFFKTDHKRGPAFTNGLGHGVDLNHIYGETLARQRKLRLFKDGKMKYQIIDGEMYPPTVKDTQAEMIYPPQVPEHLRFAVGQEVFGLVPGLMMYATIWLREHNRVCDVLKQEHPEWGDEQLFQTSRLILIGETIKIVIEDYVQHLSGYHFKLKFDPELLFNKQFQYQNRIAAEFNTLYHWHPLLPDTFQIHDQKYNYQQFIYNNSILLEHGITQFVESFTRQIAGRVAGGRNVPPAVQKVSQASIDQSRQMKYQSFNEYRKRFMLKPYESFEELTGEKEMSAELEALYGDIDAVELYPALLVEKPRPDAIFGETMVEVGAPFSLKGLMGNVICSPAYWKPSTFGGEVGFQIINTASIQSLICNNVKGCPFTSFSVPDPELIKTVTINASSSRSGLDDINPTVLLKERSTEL
The settings on record: Cancer Research, 57, pp. 2909-2915 (1997); cited from earlier work.

For test [2], the target named is COX1 (Homo sapiens, UniProt P23219). Further details: key to COX1 inhibitory effect: x: weak effect; ∘: definite inhibitory effect. The note with it: cited from earlier work; for inhibitory effect on COX1: Cancer Research, 57, pp. 2909-2915 (1997).
Test [3] concerns the target T2, KSRP (MARTA1, a rat protein having a high homology to KSRP) (Rattus norvegicus, UniProt Q99PF5).
T2 construct: from tissue; host or cells: rat brain
T2 sequence (Q99PF5 1-721): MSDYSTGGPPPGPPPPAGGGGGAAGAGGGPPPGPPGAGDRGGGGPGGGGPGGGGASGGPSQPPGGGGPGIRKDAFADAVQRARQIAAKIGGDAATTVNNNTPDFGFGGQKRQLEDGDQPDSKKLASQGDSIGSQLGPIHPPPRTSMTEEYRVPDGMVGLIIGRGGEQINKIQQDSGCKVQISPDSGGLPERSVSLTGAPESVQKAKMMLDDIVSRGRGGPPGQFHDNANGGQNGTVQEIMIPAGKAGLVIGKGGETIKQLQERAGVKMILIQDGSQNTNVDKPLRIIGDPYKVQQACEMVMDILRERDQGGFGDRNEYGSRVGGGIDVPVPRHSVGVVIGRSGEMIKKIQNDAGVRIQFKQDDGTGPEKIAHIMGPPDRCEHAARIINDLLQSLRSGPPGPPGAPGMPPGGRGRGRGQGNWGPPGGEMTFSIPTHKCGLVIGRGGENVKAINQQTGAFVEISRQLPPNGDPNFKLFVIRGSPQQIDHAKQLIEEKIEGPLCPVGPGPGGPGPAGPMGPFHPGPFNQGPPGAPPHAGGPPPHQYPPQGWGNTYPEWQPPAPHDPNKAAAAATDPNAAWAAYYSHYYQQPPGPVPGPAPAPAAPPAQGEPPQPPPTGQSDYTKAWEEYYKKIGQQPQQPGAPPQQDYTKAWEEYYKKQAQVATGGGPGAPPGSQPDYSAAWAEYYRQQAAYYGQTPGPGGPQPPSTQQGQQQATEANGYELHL
Put plainly: Binding experiments: compound-immobilized resins with rat brain lysate, SDS gel (FIG. 1). The note with it: 4° C. How it is done:
The rat brain (2.4 g) was mixed in a mixture A (25 mM Tris-HCl pH 8.0, 0.5% Tween 20, 300 μM DCC (24 ml; N,N-diethyldithiocarbamate sodium)) and prepared as a homogenate, which was then centrifuged at 9,000 rpm for 10 minutes. The centrifugal supernatant was collected and further centrifuged at 50,000 rpm for 30 minutes. The supernatant thus obtained was used as the lysate.
Each resin (10 μl) and lysate (1 ml) were gently shaken at 4° C. for about 1 hour. Thereafter, centrifugal operation was performed, and each supernatant was collected carefully. Then, each supernatant was again mixed with a fresh compound-bound resin (10 μl). At this time, the separated compound-bound resin was kept to stand at 4° C. as the resin from the first binding experiment. After the mixture was gently stirred for about 3 hours, centrifugal operation was performed, and the supernatant was removed. Subsequently, the compound-bound resin obtained in the second binding experiment and the resin obtained in the first binding experiment were gently washed with mixture A about five times to remove substances other than the protein bound onto the resin to the maximum possible extent. […]

Entries after “also recorded” stand apart in the source; their conditions may differ.

Chain of COX1 (P23219 24-599): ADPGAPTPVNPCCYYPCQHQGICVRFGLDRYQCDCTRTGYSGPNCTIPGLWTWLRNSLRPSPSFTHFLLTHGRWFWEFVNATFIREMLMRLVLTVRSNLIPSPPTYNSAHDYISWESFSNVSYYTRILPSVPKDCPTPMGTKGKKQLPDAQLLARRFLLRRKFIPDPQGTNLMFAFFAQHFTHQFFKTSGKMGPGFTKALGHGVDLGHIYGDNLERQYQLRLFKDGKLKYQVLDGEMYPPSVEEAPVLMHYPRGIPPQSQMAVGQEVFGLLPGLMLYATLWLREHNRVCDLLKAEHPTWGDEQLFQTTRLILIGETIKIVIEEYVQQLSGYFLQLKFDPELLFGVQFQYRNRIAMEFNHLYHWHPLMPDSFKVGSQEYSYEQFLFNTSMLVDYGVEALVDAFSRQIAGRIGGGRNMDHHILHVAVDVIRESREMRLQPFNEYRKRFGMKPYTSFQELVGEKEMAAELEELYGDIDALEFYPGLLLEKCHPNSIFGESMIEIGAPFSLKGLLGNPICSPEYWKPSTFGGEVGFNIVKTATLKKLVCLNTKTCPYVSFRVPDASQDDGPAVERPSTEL

On to `CC1=C(CC(=O)O)c2cc(F)ccc2/C1=C\c1ccc(S(C)(=O)=O)cc1` [Sulindac sulfone], for which the “inhibitory effect on COX2” value in test [1] is recorded as “only weak inhibitory effect”. Besides, in test [2], the “inhibitory effect on COX1” value is reported as “only weak inhibitory effect” and the COX1 inhibitory effect entry is listed as “x”.
For `CC(=O)O[C@H]1C(=O)[C@@]2(C)[C@H]([C@H](OC(=O)c3ccccc3)[C@]3(O)C[C@H](OC(=O)[C@H](O)[C@@H](NC(=O)c4ccccc4)c4ccccc4)C(C)=C1C3(C)C)[C@]1(OC(C)=O)CO[C@@H]1C[C@@H]2O` [Taxol], in test [3], the “binding of KSRP (MARTA1) to the compound-immobilized resin” value is recorded as “binds to KSRP”.
For the compound `CC1=C(CC(=O)O)c2cc(F)ccc2/C1=C\c1ccc([S+](C)[O-])cc1` (centres unmarked) [Sulindac], the “inhibitory effect on COX2” value in test [1] is on record as “only weak inhibitory effect”. Also, in test [2], the “inhibitory effect on COX1” value was “only weak inhibitory effect” and the COX1 inhibitory effect entry is listed as “x”.
Consider `CSc1ccc(/C=C2/C(C)=C(CC(=O)O)c3cc(F)ccc32)cc1` [Sulindac sulfide], for which the “binding of KSRP (MARTA1) to the compound-immobilized resin” value in test [3] is given as “other than the resin immobilized with sulindac sulfide; also recorded: other than the resin wherein sulindac sulfide was immobilized”.

Source of the values: patent US7659426B2, “Target protein of anticancer agent and novel anticancer agent (spnal) corresponding thereto” (Reverse Proteomics Research Institute Co., Ltd., priority 2003, dated 2010).
